“And” between values parts separate entries of the source, which are not always exact repeats. Equal values may be shown once. Read-outs that look alike come from different tables or passages of the source.
Assays:
[1] = system: fibrin-induced microglia activation; assay: Image-based assay of fibrin-induced microglia activation (HTS and dose response); assay type: cell-based, rat; conditions: for inhibition at 10 µM / Fibrin % inhibition: primary microglia HTS, fibrin stimulation; for inhibition at 10 µM: read-out: Fibrin % inhibition
[2] = system: fibrin- and LPS-induced microglia activation; assay: cells; assay type: cell-based, rat
primary rat microglia [3] = assay: Cell toxicity (dead cells, size <150 μm2) in coated fibrin (cFib) assay; conditions: primary microglia HTS, fibrin stimulation;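 note: share of dead cells sized under 150 µm2 at 10 µM in fibrin-stimulated microglia HTS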
[4] = system: LPS-induced microglia activation; assay: Image-based assay of LPS-induced microglia activation (HTS and dose response); assay type: cell-based, rat; conditions: for inhibition at 10 µM: 48 h, read-out: LPS % inhibition; for inhibition at 10 µM / LPS % inhibition: primary microglia HTS, LPS stimulation
primary rat microglia [5] = assay: Cell toxicity (dead cells, size <150 μm2) in LPS assay; conditions: primary microglia HTS, LPS stimulation
[6] = Rattus norvegicus, Microglia, activation = cell size >800 μm2
[7] = quadrant by fibrin and LPS inhibition in HTS of 1907 compounds
[8] = activation = cell size >800 μm2
[9] = Rattus norvegicus, Microglia, increased cell size (>800 μm^2) as marker of activation
[10] = decreased size (<150 μm^2) as marker of toxicity

| SMILES | inhibition at 10 µM [1, 6] | Quadrant (FIG. 5b) [2, 7] | Fibrin % cell toxicity (primary rat microglia [3]; toxicity = cell size <150 μm2) | inhibition at 10 µM [4, 6] | LPS % cell toxicity (primary rat microglia [5]; toxicity = cell size <150 μm2) | Fibrin % inhibition [1, 8] | LPS % inhibition [4, 8] | IC50 ([1]; Rattus norvegicus, Microglia, Table 7, read-out: fib_IC50) | inhibition at 10 µM [1, 9] | Quadrant (FIG. 5b) ([2]; Table 2, screen at 10 μM) | Fibrin % cell toxicity (primary rat microglia [3]; [10]) | inhibition at 10 µM [4, 9] | IC50 ([4]; Rattus norvegicus, Microglia, Table 7, read-out: LPS_IC50) | LPS % cell toxicity (primary rat microglia [5]; [10]) |
| --- | --- | --- | --- | --- | --- | --- | --- | --- | --- | --- | --- | --- | --- | --- |
| N#Cc1nn(-c2c(Cl)cc(C(F)(F)F)cc2Cl)c(N)c1[S+]([O-])C(F)(F)F (stereo not shown) [Fipronil] | -5% | Q4 | 1% | 12% | 0% |  |  |  |  |  |  |  |  |  |
| CC1(C)OC(=O)C(OCC2CC2)=C1c1ccc(S(C)(=O)=O)cc1 [Firocoxib] | -10% | Q4 | 1% | 11% | 1% |  |  |  |  |  |  |  |  |  |
| O=C(NCC1CCCCN1)c1cc(OCC(F)(F)F)ccc1OCC(F)(F)F (stereo not shown) [Flecainide] | -35% | Q4 | 0% | 5% | 0% |  |  |  |  |  |  |  |  |  |
| CS(=O)(=O)c1ccc([C@@H](O)[C@@H](CF)NC(=O)C(Cl)Cl)cc1 [Florfenicol] | -12% | Q4 | 1% | 16% | 1% |  |  |  |  |  |  |  |  |  |
| Nc1nc(=O)[nH]cc1F [Flucytosine, 5-fluorocytosine] |  | Q4 | 1% |  | 1% | 13% | 17% |  |  |  |  |  |  |  |
| Nc1nc(F)nc2c1ncn2[C@@H]1O[C@H](COP(=O)(O)O)[C@@H](O)[C@@H]1O [Fludarabine Phosphate] | 1% | Q4 | 1% | 11% | 0% |  |  |  |  |  |  |  |  |  |
| O=C(O)c1ccccc1Nc1cccc(C(F)(F)F)c1 [Flufenamic Acid] | -20% | Q4 | 0% | -1% | 0% |  |  |  |  |  |  |  |  |  |
| CC1CCc2cc(F)cc3c(=O)c(C(=O)O)cn1c23 (stereo not shown) [Flumequine] | -1% | Q4 | 0% | 16% | 1% |  |  |  |  |  |  |  |  |  |
| Cc1c(Nc2ncccc2C(=O)O)cccc1C(F)(F)F [Flunixin Meglumine] | -6% | Q4 | 1% | 8% | 0% |  |  |  |  |  |  |  |  |  |
| O=C1OC2(c3ccc(O)cc3Oc3cc(O)ccc32)c2ccccc21 [Fluorescein] | -3% | Q4 | 0% | 4% | 0% |  |  |  |  |  |  |  |  |  |
| CC1(C)O[C@@H]2C[C@H]3[C@@H]4C[C@H](F)C5=CC(=O)CC[C@]5(C)[C@H]4[C@@H](O)C[C@]3(C)[C@]2(C(=O)CO)O1 [Flurandrenolide, reference compound] |  | Q2 |  |  |  |  |  | 2 nM | 110% | Q2 | 6% and 5% | 98% | 2 nM | 5% |
| CC(C(=O)O)c1ccc(-c2ccccc2)c(F)c1 (stereo not shown) [Flurbiprofen] | 17% | Q4 | 0% | 33% | 0% |  |  |  |  |  |  |  |  |  |
| NP(N)(=O)NC(=O)c1ccc(F)cc1 [Flurofamide] | 3% | Q4 | 0% | -12% | 0% |  |  |  |  |  |  |  |  |  |
| FC(F)(F)COCC(F)(F)F [Flurothyl] |  | Q4 | 1% |  | 0% | 0% | 28% |  |  |  |  |  |  |  |
| C=COCC(F)(F)F [Fluroxene] | -19% | Q4 | 0% | 11% | 0% |  |  |  |  |  |  |  |  |  |
| C[C@]12CCC(=O)C(O)=C1CC[C@@H]1[C@@H]2CC[C@]2(C)C(=O)CC[C@@H]12 [Formestane] | -6% | Q4 | 1% | 10% | 0% |  |  |  |  |  |  |  |  |  |
| O=C(O)P(=O)(O)O [Foscarnet] | 5% | Q4 | 1% | 10% | 0% |  |  |  |  |  |  |  |  |  |
| O=C(O)c1ccccc1OP(=O)(O)O [Fosfosal] | -29% | Q4 | 0% | 16% | 1% |  |  |  |  |  |  |  |  |  |
| CCC(=O)O[C@@H](O[P@](=O)(CCCCc1ccccc1)CC(=O)N1C[C@H](C2CCCCC2)C[C@H]1C(=O)O)C(C)C [Fosinopril] | -52% | Q4 | 1% | -1% | 0% |  |  |  |  |  |  |  |  |  |
| C[C@@H]1O[C@@H]1P(=O)(O)O [Fosphomycin] |  | Q4 | 1% |  | 0% | 4% | 12% |  |  |  |  |  |  |  |
| O=C1OC(CN2CCOCC2)CN1/N=C/c1ccc([N+](=O)[O-])o1 (stereo not shown) [Furaltadone] | -60% | Q4 | 1% | 0% | 0% |  |  |  |  |  |  |  |  |  |
| Oc1noc2c1CCNC2 [Gaboxadol] | -43% | Q4 | 0% | 3% | 0% |  |  |  |  |  |  |  |  |  |
| CC(O)CN1CCN(CC(=O)[O-])CCN(CC(=O)[O-])CCN(CC(=O)[O-])CC1.[Gd+3] (stereo not shown) [Gadoteridol] |  | Q4 | 1% |  | 0% | −18% | 15% |  |  |  |  |  |  |  |
